Assay results from patent US20040097534A1, “Composition for the protection and regeneration of nerve cells containing berberine derivatives” (EUGENBIO INC., priority 2001, published 2004).
Entries after “also recorded” stand apart in the source; their conditions may differ.

Experiments:
[1] = system: nerve cells in cerebral slices; experiment: Apoptosis of nerve cells induced by MK-801, TUNEL staining of cerebral slices; format: in vivo; conditions: for apoptosis of nerve cells (TUNEL staining): berberine (5 mg/kg) alone, intraperitoneal, young white rats
Description: All groups were intraperitoneally injected.
Experimental animals were sacrificed under anesthetization and their brains were excised. The excised brains were fixed with formalin and tissue sections were obtained. The tissue sections were stained by TUNEL method, and photographed (×1.25 and ×400) using an optical microscope (Olympus BX 50).
The number of TUNEL-positive dead nerve cells in the same area of cerebral slices of 12 rats per group was counted, and the numbers were averaged (FIG. 1).

bcl-2 mRNA = experiment: Expression of bcl-2 mRNA in white rat cerebra (RT-PCR); format: in vivo; conditions: berberine 5 mg/kg intraperitoneally
Procedure: All groups were intraperitoneally injected. RT-PCR was performed to examine the expression of bcl-2 mRNA, which is an anti-apoptosis gene expressed in cerebral tissues. GAPDH mRNA was used as a control group. The expression of GAPDH mRNA was also performed by RT-PCR method.
1 ml of TRI Reagent (Molecular Research Center Inc., USA) was added to 100 mg of cerebral tissue sections, and the mixture was homogenized and then left at room temperature for 10 minutes. 0.1 ml of BCP (Sigma, USA) was added to 1 ml of the homogenized mixture, mixed with each other for 1 minute, and then left at 4° C. for 10 minutes. After the mixture was centrifuged at 12,000 rpm, 4° C. for 15 minutes, the supernatant was added to cold isopropanol and left at a temperature of −20° C. for 16 hours. Thereafter, the supernatant was centrifuged at 12,000 rpm, 4 for 15 minutes to obtain RNA precipitates. The obtained RNA precipitates were washed with DEPC diethylpyrocarbonate)-treated cold ethanol (75%), and dried using SpeedVac. The dried RNA was dissolved in DEPC-treated distilled water. After the concentration and purity of RNA were spectrophotometrically measured at 260 nm, the isolated RNA was stored at a temperature of −20° C. before use. […]
10 μl of amplified PCR product was electrophoresed in a 1.5% agarose gel, and the density was measured using a gel documentation system (Bio-Rad Lab, USA).

SH-SY5Y cells = experiment: MTT assay, SH-SY5Y survival under serum deprivation-induced stress; format: cell-based, human; conditions: for O.D.: 2 days; for Average (O.D. relative to N2): N2 = 100%
Procedure: Cell injuries under condition of serum deprivation-induced stress and oxidative stress were measured by MTT assay. For MTT assay, Cells were seeded into N2 medium in an amount of 7.5×10^3 cells, and then a neurotoxin or a nerve growth factor was added thereto to differentiate the cells and then 0.1 volume of 4 mg/ml MTT was further added. The mixture was stored at 37° C. for 3-4 hours. After 100 μl of solubilization buffer was added to the mixture and then stored for 24 hours, O.D. values were measured by ELISA assay.
In order to prepare a stroke-like cell model using SH-SY5Y, the cells were cultured under serum deprivation. […] Retinoic acid, which induces the differentiation of SH-SY5Y as a cell differentiation factor, was used as a positive control. 3 hours before depriving serum, the cells were treated with berberine (0.25˜3 μg). The cells were cultured in chemically defined media (N2) for 2 days to induce nerve regeneration (see, Table 2 and FIG. 4a).

HiB5 cells = experiment: Induction of differentiation of HiB5 cells into nerve cells (neurite count, confocal); format: cell-based, white rat; conditions: HiB5, berberine, 2 days
Procedure: Thereafter, the culture was treated with berberine and further cultured for 2 days. The cultured cells were immunostained with nerve cell-specific labeled molecule, and then the number of cells having neurites longer than cell bodies was counted under a confocal microscope. A positive control was treated with bFGF under the same condition as described above to induce the differentiation into nerve cells. In addition, the neuroregenerative effect was examined after berberine together with bFGF was treated. The differentiation degree was measured by double-staining neurites with nerve cell-specific labeled molecule (anti-neurofilament antibody) and FITC-labeled secondary antibody (green), followed by staining cell nuclei with propidium iodide (red).

sciatic nerves = experiment: Regeneration of crushed sciatic nerves (axons, myelin sheaths); format: in vivo, Sprague-Dawley white rat; conditions: 3 weeks, berberine intraperitoneal

For `COc1ccc2cc3[n+](cc2c1OC)CCc1cc2c(cc1-3)OCO2` [Berberine, 7,8,13,13a-tetradihydro-9,10-dimethoxy-2,3-(methylenedioxy) berbinium], the “apoptosis of nerve cells (TUNEL staining)” value [1] was “did not induce apoptosis of nerve cells”, the “apoptosis of nerve cells (TUNEL staining)” value ([1]; listed as berberine) was “apoptosis of nerve cells was not observed” and the “inhibition of apoptosis of nerve cells induced by MK-801” value ([1]; pretreated with berberine (5 mg/kg) for 5 days, then MK-801 (0.5 mg/kg) i.p.) was “considerably inhibits apoptosis of nerve cells induced by MK-801”. The “expression of bcl-2 mRNA in cerebral tissues” value (bcl-2 mRNA) was “High bcl-2 mRNA Expression”, the “expression of bcl-2 mRNA in cerebral tissues” value (bcl-2 mRNA; listed as berberine) was “higher than in the control group; also recorded: increased” and the O.D. (SH-SY5Y cells; N2 + berberine 0.25 μg/ml) was 0.076. For the same compound, the “Average (O.D. relative to N2)” value (SH-SY5Y cells; N2 + berberine 0.25 μg/ml) was 113%, the O.D. (SH-SY5Y cells; N2 + berberine 1.5 μg/ml) was 0.118 and the “Average (O.D. relative to N2)” value (SH-SY5Y cells; N2 + berberine 1.5 μg/ml) was 177%. For the same compound, the O.D. (SH-SY5Y cells; N2 + berberine 3 μg/ml) was 0.104, the “Average (O.D. relative to N2)” value (SH-SY5Y cells; N2 + berberine 3 μg/ml) was 155% and the cell survival (SH-SY5Y cells; serum deprivation, berberine 3 μg/ml compared with 1.5 μg/ml) was “somewhat decreased”. The “cell survival rate versus control group” value (SH-SY5Y cells; serum deprivation, berberine (1.5 μg/ml elsewhere in the source)) was “two times higher”, the “number of cells differentiated into nerve cells, increase” value (HiB5 cells) was “increased two times” and the “Number of differentiated cells” value (HiB5 cells; N2 = 3.07) was 7.87. For the same compound, the “Average (%) of differentiated cells” value (HiB5 cells; N2 = 14.46) was 31.57%, the “total average cell numbers” value (HiB5 cells; N2 = 22.38) was 26.61 and the “number of axons longer than 300 μm” value (sciatic nerves; PBS = 21.3) was 51.6. For the same compound, the “number of myelin sheaths longer than 200 μm” value (sciatic nerves; PBS = 40) was 112.
